Here are results for seven compounds from ChEMBL document CHEMBL1145498, “A systematic interaction map of validated kinase inhibitors with Ser/Thr kinases” (Proc Natl Acad Sci U S A, 2007).

For assay [1], the target named is Calcium/calmodulin-dependent protein kinase type 1D (Homo sapiens) (UniProt Q8IU85).
The target of assay [2] is Cyclin-dependent kinase 6 (Homo sapiens) (UniProt Q00534).
Assay [3] has as its target Cyclin-dependent kinase-like 1 (Homo sapiens) (UniProt Q00532).
For assay [4], the target named is T1, Dual specificity mitogen-activated protein kinase kinase 6 (Homo sapiens) (UniProt P52564).
T1 sequence (whole entry): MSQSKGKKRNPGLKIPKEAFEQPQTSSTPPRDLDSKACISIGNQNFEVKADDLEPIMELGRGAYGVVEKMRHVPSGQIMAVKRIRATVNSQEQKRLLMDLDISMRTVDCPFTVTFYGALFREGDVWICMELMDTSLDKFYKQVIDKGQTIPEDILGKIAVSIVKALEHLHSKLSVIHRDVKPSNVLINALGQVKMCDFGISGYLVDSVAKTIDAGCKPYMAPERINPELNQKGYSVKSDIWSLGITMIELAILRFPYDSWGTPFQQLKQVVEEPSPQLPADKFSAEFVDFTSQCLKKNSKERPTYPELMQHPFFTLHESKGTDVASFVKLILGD

In assay [5] the target is Mitogen-activated protein kinase 11 (Homo sapiens, UniProt Q15759).
Sequence of Mitogen-activated protein kinase 11 (Q15759 whole entry): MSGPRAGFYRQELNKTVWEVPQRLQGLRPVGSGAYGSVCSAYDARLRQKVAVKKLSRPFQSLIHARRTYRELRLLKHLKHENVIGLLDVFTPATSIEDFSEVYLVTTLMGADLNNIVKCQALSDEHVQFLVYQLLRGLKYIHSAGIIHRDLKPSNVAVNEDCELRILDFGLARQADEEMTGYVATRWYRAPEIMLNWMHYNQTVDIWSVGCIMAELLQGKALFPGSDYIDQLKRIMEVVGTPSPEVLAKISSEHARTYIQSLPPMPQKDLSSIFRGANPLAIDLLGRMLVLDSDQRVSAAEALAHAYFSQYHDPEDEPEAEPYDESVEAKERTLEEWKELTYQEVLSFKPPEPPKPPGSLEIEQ
Assay [6] addresses Mitogen-activated protein kinase 3 (Homo sapiens, UniProt P27361).
Assay [7] deals with Serine/threonine-protein kinase 26 (Homo sapiens) (UniProt Q9P289).
Sequence of Serine/threonine-protein kinase 26 (Homo sapiens) (Q9P289 2-416 limits assumed): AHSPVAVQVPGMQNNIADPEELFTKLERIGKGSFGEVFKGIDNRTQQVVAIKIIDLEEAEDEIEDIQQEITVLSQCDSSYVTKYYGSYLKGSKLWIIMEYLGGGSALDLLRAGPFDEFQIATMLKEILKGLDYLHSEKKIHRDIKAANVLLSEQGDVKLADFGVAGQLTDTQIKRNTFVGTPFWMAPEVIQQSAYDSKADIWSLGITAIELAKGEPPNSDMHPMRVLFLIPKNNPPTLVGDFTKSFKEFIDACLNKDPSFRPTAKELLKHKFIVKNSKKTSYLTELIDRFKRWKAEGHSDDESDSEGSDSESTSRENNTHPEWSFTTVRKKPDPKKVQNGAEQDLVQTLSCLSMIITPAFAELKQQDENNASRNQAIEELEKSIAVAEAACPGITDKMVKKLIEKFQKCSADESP
The target of assay [8] is T2, Serine/threonine-protein kinase Nek2 (Homo sapiens) (UniProt P51955).
T2 sequence (whole entry): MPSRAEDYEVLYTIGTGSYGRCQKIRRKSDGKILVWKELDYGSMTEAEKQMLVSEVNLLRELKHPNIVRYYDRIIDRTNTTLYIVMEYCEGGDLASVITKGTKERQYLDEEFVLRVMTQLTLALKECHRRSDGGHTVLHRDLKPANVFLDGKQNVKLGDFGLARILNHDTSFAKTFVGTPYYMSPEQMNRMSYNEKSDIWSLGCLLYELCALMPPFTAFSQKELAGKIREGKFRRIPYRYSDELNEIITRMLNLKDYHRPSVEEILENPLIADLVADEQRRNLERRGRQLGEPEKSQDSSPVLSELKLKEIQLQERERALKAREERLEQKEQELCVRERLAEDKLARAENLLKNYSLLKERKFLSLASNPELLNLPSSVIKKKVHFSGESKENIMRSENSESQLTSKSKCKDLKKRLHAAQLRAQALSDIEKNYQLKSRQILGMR

Assay [9] concerns the target Serine/threonine-protein kinase PAK 4 (Homo sapiens) (UniProt O96013).
In assay [10] the target is Serine/threonine-protein kinase PAK 5 (Homo sapiens) (UniProt Q9P286).
Sequence of Serine/threonine-protein kinase PAK 5 (Homo sapiens) (Q9P286 whole entry, looked up): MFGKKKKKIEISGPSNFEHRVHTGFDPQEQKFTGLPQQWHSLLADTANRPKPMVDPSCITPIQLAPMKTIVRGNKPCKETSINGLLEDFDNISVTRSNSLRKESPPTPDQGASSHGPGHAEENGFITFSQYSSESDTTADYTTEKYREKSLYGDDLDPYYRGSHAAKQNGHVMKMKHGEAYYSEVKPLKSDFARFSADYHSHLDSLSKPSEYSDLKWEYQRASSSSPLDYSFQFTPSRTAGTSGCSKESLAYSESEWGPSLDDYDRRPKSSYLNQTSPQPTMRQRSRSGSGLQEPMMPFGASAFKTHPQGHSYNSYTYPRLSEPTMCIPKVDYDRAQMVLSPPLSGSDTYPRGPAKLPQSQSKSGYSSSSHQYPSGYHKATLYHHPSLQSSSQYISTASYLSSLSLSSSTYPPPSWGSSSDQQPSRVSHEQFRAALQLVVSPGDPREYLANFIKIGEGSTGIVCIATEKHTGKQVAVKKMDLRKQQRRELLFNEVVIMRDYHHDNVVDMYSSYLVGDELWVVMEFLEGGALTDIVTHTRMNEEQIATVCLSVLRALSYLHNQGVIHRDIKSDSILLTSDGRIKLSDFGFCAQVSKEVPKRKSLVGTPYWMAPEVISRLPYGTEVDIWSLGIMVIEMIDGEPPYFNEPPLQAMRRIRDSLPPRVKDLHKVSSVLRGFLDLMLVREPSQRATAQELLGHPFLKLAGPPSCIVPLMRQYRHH
The target in assay [11] is Cyclin-dependent kinase 16 (Homo sapiens) (UniProt Q00536).
Sequence of Cyclin-dependent kinase 16 (Homo sapiens) (Q00536 whole entry): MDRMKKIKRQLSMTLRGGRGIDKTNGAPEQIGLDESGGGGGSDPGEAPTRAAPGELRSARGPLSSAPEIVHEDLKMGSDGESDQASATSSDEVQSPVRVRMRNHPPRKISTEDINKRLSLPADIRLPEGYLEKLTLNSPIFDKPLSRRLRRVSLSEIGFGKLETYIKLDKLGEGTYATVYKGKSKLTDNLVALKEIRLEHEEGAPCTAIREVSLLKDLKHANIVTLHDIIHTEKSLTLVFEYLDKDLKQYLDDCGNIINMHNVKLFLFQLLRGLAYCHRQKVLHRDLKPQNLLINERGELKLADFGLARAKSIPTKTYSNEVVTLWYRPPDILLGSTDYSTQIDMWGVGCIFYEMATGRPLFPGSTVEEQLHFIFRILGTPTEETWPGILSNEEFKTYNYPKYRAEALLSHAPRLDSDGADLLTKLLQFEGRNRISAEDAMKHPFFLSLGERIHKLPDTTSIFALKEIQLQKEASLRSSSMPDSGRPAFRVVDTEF
Assay [12] has as its target Serine/threonine-protein kinase pim-3 (Homo sapiens) (UniProt Q86V86).
The target in assay [13] is Ribosomal protein S6 kinase alpha-3 (Homo sapiens) (UniProt P51812).
Sequence of Ribosomal protein S6 kinase alpha-3 (Homo sapiens) (P51812 whole entry): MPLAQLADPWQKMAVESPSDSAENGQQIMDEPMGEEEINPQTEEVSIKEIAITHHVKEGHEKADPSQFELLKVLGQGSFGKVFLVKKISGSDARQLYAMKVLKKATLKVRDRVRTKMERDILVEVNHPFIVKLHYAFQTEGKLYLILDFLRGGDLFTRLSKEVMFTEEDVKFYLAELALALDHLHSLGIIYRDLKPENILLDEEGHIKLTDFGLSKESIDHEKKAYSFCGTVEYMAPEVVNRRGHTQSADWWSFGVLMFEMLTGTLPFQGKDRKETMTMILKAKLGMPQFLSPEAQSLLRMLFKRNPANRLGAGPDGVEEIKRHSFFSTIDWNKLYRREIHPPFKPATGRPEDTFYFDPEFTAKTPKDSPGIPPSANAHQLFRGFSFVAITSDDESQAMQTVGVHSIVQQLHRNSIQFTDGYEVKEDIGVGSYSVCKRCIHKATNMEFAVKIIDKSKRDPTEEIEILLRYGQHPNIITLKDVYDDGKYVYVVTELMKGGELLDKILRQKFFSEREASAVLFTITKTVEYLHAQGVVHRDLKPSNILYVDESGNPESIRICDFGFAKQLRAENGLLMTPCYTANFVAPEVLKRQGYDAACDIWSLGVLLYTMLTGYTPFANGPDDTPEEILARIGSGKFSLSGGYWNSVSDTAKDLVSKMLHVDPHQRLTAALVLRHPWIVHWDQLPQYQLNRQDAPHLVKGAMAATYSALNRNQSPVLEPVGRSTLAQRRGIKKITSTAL
In assay [14] the target is Serine/threonine-protein kinase 16 (Homo sapiens) (UniProt O75716).
Sequence of Serine/threonine-protein kinase 16 (Homo sapiens) (O75716 whole entry): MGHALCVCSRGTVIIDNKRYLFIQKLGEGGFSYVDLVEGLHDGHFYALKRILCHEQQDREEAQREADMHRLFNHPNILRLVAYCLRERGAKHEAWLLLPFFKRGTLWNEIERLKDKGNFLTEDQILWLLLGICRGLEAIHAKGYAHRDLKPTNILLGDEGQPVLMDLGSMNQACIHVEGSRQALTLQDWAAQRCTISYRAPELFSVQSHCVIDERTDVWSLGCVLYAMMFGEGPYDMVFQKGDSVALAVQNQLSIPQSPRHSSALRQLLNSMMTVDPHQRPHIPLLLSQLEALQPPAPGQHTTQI
Assay [15] addresses T3, Serine/threonine-protein kinase 17A (Homo sapiens) (UniProt Q9UEE5).
T3 sequence (whole entry): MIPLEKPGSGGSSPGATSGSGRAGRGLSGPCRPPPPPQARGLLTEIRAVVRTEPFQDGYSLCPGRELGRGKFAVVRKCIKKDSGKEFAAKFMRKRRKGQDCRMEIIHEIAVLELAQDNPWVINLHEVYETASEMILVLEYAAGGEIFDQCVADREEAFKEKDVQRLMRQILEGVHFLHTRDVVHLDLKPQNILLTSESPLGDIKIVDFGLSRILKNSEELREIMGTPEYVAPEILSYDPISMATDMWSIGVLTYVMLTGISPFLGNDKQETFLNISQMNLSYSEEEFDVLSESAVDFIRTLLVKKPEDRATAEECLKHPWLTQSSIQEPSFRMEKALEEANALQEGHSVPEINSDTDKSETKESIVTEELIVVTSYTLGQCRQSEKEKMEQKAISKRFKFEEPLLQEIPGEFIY

Assay [16] addresses Serine/threonine-protein kinase 38 (Homo sapiens) (UniProt Q15208).
The target of assay [17] is T4, Serine/threonine-protein kinase 4 (Homo sapiens) (UniProt Q13043).
T4 sequence (whole entry): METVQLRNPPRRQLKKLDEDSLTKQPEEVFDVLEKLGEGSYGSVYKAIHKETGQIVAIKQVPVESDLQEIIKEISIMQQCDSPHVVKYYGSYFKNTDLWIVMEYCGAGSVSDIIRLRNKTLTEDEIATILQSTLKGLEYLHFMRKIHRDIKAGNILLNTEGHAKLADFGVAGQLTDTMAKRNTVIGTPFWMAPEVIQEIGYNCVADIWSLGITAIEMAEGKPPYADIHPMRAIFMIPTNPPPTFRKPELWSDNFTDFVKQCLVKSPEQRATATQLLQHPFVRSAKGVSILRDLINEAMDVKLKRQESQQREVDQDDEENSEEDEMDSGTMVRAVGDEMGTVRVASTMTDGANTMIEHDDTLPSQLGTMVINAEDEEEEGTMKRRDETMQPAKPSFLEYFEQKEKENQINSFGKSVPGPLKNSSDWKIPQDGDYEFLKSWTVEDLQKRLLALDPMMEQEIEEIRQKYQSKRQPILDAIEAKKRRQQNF

Assay [18] has as its target T5, Lymphokine-activated killer T-cell-originated protein kinase (Homo sapiens) (UniProt Q96KB5).
T5 sequence (whole entry): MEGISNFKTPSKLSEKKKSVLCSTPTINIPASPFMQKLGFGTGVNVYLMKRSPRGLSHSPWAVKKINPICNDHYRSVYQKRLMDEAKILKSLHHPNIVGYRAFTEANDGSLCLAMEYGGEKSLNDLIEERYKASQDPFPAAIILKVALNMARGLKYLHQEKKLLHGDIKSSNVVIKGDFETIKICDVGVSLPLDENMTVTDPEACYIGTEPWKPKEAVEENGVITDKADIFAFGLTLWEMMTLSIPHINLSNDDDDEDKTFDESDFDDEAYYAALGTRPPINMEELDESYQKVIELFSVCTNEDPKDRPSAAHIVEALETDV

Sequence of Calcium/calmodulin-dependent protein kinase type 1D (Homo sapiens) (Q8IU85 whole entry, looked up): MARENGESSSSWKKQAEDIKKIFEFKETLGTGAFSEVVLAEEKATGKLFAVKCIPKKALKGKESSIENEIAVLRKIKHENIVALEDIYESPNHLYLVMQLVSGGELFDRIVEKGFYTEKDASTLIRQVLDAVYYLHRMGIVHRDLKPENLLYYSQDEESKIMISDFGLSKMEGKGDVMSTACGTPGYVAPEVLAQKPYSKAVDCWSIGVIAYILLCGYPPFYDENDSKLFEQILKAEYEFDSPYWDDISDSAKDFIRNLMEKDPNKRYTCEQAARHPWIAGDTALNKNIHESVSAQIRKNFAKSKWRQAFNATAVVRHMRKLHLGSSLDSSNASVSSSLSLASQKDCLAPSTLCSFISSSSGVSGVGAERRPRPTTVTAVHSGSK
Sequence of Mitogen-activated protein kinase 3 (P27361 whole entry): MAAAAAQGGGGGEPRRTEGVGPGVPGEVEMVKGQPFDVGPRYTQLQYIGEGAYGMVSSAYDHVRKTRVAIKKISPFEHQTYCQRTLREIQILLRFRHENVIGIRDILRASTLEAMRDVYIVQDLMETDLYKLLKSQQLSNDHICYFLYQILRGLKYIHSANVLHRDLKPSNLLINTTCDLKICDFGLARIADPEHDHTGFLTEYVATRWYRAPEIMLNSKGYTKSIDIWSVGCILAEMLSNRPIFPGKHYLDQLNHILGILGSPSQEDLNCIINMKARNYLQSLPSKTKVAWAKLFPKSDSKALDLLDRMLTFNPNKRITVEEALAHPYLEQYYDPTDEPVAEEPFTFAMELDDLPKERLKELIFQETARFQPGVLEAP
Sequence of Cyclin-dependent kinase-like 1 (Homo sapiens) (Q00532 whole entry): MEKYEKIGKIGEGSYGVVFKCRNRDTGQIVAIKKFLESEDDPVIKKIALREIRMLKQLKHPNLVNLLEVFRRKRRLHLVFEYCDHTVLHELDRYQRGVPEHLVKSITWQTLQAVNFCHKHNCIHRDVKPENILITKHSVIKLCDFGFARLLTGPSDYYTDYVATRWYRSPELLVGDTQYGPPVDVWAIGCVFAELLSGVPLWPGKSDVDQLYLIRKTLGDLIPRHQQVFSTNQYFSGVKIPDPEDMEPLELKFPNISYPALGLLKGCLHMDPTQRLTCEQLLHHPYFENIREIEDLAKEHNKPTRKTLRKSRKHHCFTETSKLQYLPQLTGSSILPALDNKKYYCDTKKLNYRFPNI
Sequence of Serine/threonine-protein kinase 38 (Homo sapiens) (Q15208 2-465 limits assumed): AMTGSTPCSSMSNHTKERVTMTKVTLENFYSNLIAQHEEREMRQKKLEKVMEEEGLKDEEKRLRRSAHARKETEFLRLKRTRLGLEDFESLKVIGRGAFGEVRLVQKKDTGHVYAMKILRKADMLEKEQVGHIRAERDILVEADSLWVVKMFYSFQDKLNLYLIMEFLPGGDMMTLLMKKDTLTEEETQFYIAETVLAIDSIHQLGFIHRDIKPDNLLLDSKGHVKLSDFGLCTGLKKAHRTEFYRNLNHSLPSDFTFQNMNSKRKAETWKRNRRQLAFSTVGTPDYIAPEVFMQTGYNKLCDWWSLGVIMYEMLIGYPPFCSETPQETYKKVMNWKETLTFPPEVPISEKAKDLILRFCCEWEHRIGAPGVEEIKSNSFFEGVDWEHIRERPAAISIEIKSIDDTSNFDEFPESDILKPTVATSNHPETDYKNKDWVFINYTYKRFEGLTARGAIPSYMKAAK
Sequence of Cyclin-dependent kinase 6 (Homo sapiens) (Q00534 whole entry): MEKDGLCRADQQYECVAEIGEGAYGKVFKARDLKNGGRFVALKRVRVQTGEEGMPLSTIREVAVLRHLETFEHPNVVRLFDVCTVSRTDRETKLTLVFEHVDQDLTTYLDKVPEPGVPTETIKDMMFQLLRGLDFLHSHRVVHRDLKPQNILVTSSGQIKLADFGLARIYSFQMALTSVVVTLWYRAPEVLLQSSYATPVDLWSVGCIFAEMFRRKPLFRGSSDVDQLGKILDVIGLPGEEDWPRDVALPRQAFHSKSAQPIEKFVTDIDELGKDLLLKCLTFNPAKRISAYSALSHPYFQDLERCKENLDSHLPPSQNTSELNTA

`Oc1cccc(-c2nc(N3CCOCC3)c3oc4ncccc4c3n2)c1`: the ΔTm (usually the change in melting temperature against a reference sample) was 0.4 °C in assay [1]; -0.4 °C in [2]; -0.3 °C in [3]; 0 °C in [4]; 1 °C in assay [5]; 0 °C in assay [6]. Further, the shift in melting temperature (ΔTm) is 0.2 °C in [7]; 0.5 °C in assay [8]; 0.7 °C in assay [9]; 0.8 °C in assay [10]; -0.1 °C in assay [11]; 0.6 °C in [12]. Also, the shift in melting temperature (ΔTm) in assay [13] was -0.6 °C; in [14], 0.3 °C; in assay [15], 1.5 °C; in assay [16], 0 °C; in assay [17], -0.1 °C; in assay [18], 0.5 °C.
As to `Nc1cc2ncnc(Nc3cccc(Br)c3)c2cc1N`, the ΔTm in [1] turned out to be 0.6 °C; in assay [2] it was 0.8 °C; in assay [3], 0.8 °C; in assay [4] it was 0.7 °C; in assay [5], 2.5 °C; in assay [6], 0.4 °C. Besides, the shift in melting temperature (ΔTm) is 3.6 °C in assay [7]; 3.3 °C in assay [8]; 0.6 °C in assay [9]; 0.2 °C in assay [10]; -0.4 °C in assay [11]; 3.2 °C in assay [12]. Moreover, the ΔTm in [13] was 0.5 °C; in assay [14] it was 0.1 °C; in assay [15], 7.7 °C; in assay [16], 0.1 °C; in [17] it was 2.7 °C; in assay [18], -0.2 °C.
In the case of `O=c1c(-c2ccc(O)cc2)coc2cc(O)cc(O)c12`, the ΔTm in assay [1] was 0.7 °C; in assay [2], 0.1 °C; in assay [3], -0.1 °C; in assay [4], 0.9 °C; in assay [5], 0 °C; in assay [6], 0.6 °C. Moreover, the ΔTm in assay [7] is 1 °C; in assay [8], -0.1 °C; in assay [9], 0.8 °C; in assay [10], 0.2 °C; in [11], -0.6 °C; in [12], 3 °C. The ΔTm in [13] was 1.5 °C; in assay [14], 4.3 °C; in [15], 0.6 °C; in assay [16] it was 0.6 °C; in assay [17] it was 1.5 °C; in [18], 0.7 °C.
`Cc1cc2ncc(-c3ccccc3)nc2cc1C`: the thermal shift (ΔTm) in assay [1] is 0.6 °C; in assay [2], 0.4 °C; in assay [3], -0.3 °C; in assay [4] it was 0.3 °C; in assay [5], -0.3 °C; in assay [6], -0.6 °C. Moreover, the ΔTm in assay [7] is -0.5 °C; in assay [8] it was 2.1 °C; in assay [9] it was 1.1 °C; in [10], 0.8 °C; in [11], 0.3 °C; in assay [12], 0.5 °C. Besides, the ΔTm in assay [13] was -0.1 °C; in [14] it was 0.5 °C; in [15], 1.5 °C; in assay [16], 0.5 °C; in [17], 2.2 °C; in assay [18] it was -0.6 °C.
Turning to `O=C1NC(=O)C(c2c[nH]c3ccccc23)=C1c1c[nH]c2ccccc12`, the thermal shift (ΔTm) in assay [1] amounted to 0.6 °C; in assay [2], 1.2 °C; in assay [3], 0.6 °C; in assay [4], 1.1 °C; in [5] it was 0.5 °C; in assay [6] it was 0.1 °C. The ΔTm in [7] stood at 0.9 °C; in assay [8] it was 1.9 °C; in [9], 1.8 °C; in assay [10], 0.6 °C; in assay [11], 1.7 °C; in [12] it was 6.3 °C. The shift in melting temperature (ΔTm) was 1 °C in assay [13]; 3.5 °C in assay [14]; 2.9 °C in assay [15]; 0.5 °C in assay [16]; 4.1 °C in [17]; -0.2 °C in assay [18].
Consider `CC(C)N(CCO)c1nc(Nc2cccc(Cl)c2)c2ncn(C(C)C)c2n1`, for which the shift in melting temperature (ΔTm) in assay [1] was 0.4 °C; in [2], 0.2 °C; in assay [3] it was 0.3 °C; in assay [4] it was 0.9 °C; in [5] it was -0.4 °C; in assay [6], 1.7 °C. For the same compound, the shift in melting temperature (ΔTm) is 2.8 °C in assay [7]; 0.7 °C in assay [8]; 4.7 °C in assay [9]; 3 °C in assay [10]; 0.8 °C in assay [11]; 1.4 °C in assay [12]. The ΔTm in [13] was 0.6 °C; in assay [14], 3.1 °C; in [15] it was -0.1 °C; in assay [16] it was 3.3 °C; in assay [17], 4.2 °C; in [18], 0 °C.
`O=C1Nc2cc(Br)ccc2/C1=C1/Nc2ccccc2/C1=N\O`: the thermal shift (ΔTm) in assay [1] was -0.8 °C; in assay [2] it was -0.1 °C; in assay [3] it was 1.5 °C; in assay [4] it was 0.2 °C; in assay [5] it was -2.5 °C; in [6], 0.7 °C. For the same compound, the thermal shift (ΔTm) in assay [7] is 3.7 °C; in [8] it was 0.7 °C; in [9], 1.8 °C; in assay [10], 4.6 °C; in [11], -1.7 °C; in assay [12], -0.1 °C. The shift in melting temperature (ΔTm) was found to be 4.6 °C in assay [13]; 7.6 °C in [14]; 1.9 °C in [15]; 2.6 °C in [16]; 4.4 °C in assay [17]; 1.1 °C in assay [18].
